Consider four molecules from PMC7100886 (Cell Cycle, 2020).

Ends that are not written are not given here. * marks the point of attachment. Biotin = O=C1N[C@H]2[C@H](CS[C@H]2CCCCC(=O)*)N1

The test system of assay [1] is BT-549 cells. To be noted: RAD51 inhibitor; cited from earlier work.
The target of assay [2] is c-Jun (Homo sapiens, UniProt P05412). As to conditions: cited from earlier work.
Assay [3] has as its target His-tagged recombinant c-Jun (UniProt P05412 1-331). Nature of the assay: BLI. On the technique in general: In BLI a coated tip is dipped into the sample, and binding shifts an interference pattern.

Chain of c-Jun (P05412 whole entry): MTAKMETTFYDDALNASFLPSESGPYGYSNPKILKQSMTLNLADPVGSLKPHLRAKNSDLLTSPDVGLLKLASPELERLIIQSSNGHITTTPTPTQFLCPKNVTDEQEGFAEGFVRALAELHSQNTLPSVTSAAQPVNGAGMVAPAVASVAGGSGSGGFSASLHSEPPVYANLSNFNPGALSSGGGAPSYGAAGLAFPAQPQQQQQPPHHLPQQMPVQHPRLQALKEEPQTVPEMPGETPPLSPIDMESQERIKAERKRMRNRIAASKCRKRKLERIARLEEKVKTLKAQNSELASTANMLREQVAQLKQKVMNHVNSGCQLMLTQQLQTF
Chain of His-tagged recombinant c-Jun (P05412 whole entry): as above

Regarding `O=C1C(Cl)=C(N2CCOCC2)C(=O)N1c1ccc(Cl)c(Cl)c1` [RI-1], the “effect on efficiency of double stranded DNA break repair” value in assay [1] was “little to no effect”. Consider `CC[C@]1(O)C[C@@H]2CN(CCc3c([nH]c4ccccc34)[C@@](C(=O)OC)(c3cc4c(cc3OC)N(C)[C@H]3[C@@](O)(C(=O)OC)[C@H](OC(C)=O)[C@]5(CC)C=CCN6CC[C@]43[C@@H]65)C2)C1` [Vinblastine], for which, in assay [2], the p21 entry is “decrease in p21” and the “phosphorylated c-Jun” value is recorded as “increasing phosphorylated c-Jun”.

B1: CAPER Peptide HCC1.3 (peptide)
peptide: Biotin-YGRKKRRQRRRRLQLMARLAEGTGLQIPPAAQQALQMSGSLAFGAVADLQTRLSQQ
As usually defined, the Kd is the free concentration of one partner at which half of the binding sites on the other are occupied at equilibrium, for simple one-to-one binding. Take B1: the Kd in assay [3] came out at 8.89 nM.

B2: CAPER Peptide HCC1.4 (peptide)
peptide: Biotin-YGRKKRRQRRRRLQLMARLAEGTGLQIPPAAQQALQMSGSLAFGAVAEFSFVIDLQ
For the molecule B2, the Kd in assay [3] worked out at 25.6 nM.
